Test results published in patent EP0624163B1, “CYCLIC CALCITONIN DERIVATIVES AND METHOD FOR THEIR PRODUCTION” (Smithkline Beecham Farmaceutici S.p.A., priority 1992, dated 1998).

System: Male Sprague Dawley rats
Assay: Hypocalcaemic activity in rats (total serum calcium after i.v. injection)
Format: in vivo, rat
Settings: fasted rats, blood sampled one hour after dosing, VEHICLE 10.49 + 0.6
Description: The hypocalcaemic activity of compounds (I) can be determined as reported for example in J. Endocrinology, 33, 469 (1965).
Male Sprague Dawley rats, about 4 weeks old, were kept under fasting conditions for 24 hours. The compounds were dissolved with BSA buffer (0.1% bovine serum albumin on 0.1M acetate buffer pH 4.5) and injected by the i.v. route into the lateral tail vein at doses of 3-10-30-100 ng/Kg. One hour after the dosing blood was sampled from the tail or neck vessels, then the serum samples obtained.
The serum was diluted with 0.1% lanthanium chloride solution and the concentration of total calcium was determined by Atomic Absorption Spectrophotometry.

SMILES: CC(C)C[C@H](NC(=O)[C@H](CCCCN)NC(=O)CNC(=O)[C@H](CC(C)C)NC(=O)[C@@H](NC(=O)[C@@H]1CC#CCCC(=O)N[C@@H](CO)C(=O)N[C@@H](CC(N)=O)C(=O)N[C@@H](CC(C)C)C(=O)N[C@@H](CO)C(=O)N[C@@H]([C@@H](C)O)C(=O)N1)C(C)C)C(=O)N[C@@H](CO)C(=O)N[C@@H](CCC(N)=O)C(=O)N[C@@H](CCC(=O)O)C(=O)N[C@@H](CC(C)C)C(=O)N[C@@H](Cc1c[nH]cn1)C(=O)N[C@@H](CCCCN)C(=O)N[C@@H](CC(C)C)C(=O)N[C@@H](CCC(N)=O)C(=O)N[C@H](C(=O)N[C@@H](Cc1ccc(O)cc1)C(=O)N1CCC[C@H]1C(=O)N[C@@H](CCCNC(=N)N)C(=O)N[C@H](C(=O)N[C@@H](C)C(=O)N[C@H](C(=O)NCC(=O)N[C@@H](C)C(=O)NCC(=O)N[C@H](C(=O)N1CCC[C@H]1C(N)=O)[C@@H](C)O)C(C)C)[C@@H](C)O)[C@@H](C)O [Example 4]
- Total serum calcium; mean + S.D. (Dose 3 ng/kg i.v. (lateral tail vein)): 10.09±0.1 mg/100 ml
- Total serum calcium; mean + S.D. (Dose 10 ng/kg i.v. (lateral tail vein)): 8.85±0.25 mg/100 ml
- Total serum calcium; mean + S.D. (Dose 30 ng/kg i.v. (lateral tail vein)): 7.92±0.15 mg/100 ml
- Total serum calcium; mean + S.D. (Dose 100 ng/kg i.v. (lateral tail vein)): 7.66±0.18 mg/100 ml
